According to US20040127403A1, “Methods for treating and preventing Gram-positive bacteremias” (priority 2002, published 2004):
Values after ≈ are worked out from the molar mass of the structure shown. Where two headings read alike, the source gives them in different places.

How the values were obtained:
Test in all cases: MIC, NCCLS broth microdilution
Type in all cases: cell-based
E. faecalis A7789 Line-R = details: Enterococcus faecalis, A7789LINER
How it was run: (§1)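 Ramoplanin-containing broths (cation-adjusted Mueller-Hinton or trypticase soy) received 0.02% BSA so the drug would not stick to plastic. Minimum inhibitory concentrations were read per the NCCLS broth microdilution standard.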

E. faecalis ATCC29212 = tested on: E. faecalis ATCC29212
How it was run: as §1

E. faecalis ATCC51299 = details: Enterococcus faecalis, ATCC51299, E. faecalis ATCC51299, read-out: MIC
How it was run: as §1

E. faecium A-5960 Line-R = details: Enterococcus faecium, A5960LINER
How it was run: as §1

E. faecium A2735 Syn-R = details: Enterococcus faecium, A2735SYNR, read-out: MIC
How it was run: as §1

E. faecium A4192 Syn-R = details: Enterococcus faecium, A4192SYNR, read-out: MIC
How it was run: as §1

E. faecium A5959 Line-R = details: Enterococcus faecium, A5959LINER
How it was run: as §1

E. faecium A6343 Line-R = details: Enterococcus faecium, A6343LINER, read-out: MIC
How it was run: as §1

E. faecium A6345 Line-R = details: Enterococcus faecium, A6345LINER, E. faecium A6345 Line-R, read-out: MIC
How it was run: as §1

E. faecium A6349 Line-R = details: Enterococcus faecium, A6349LINER, read-out: MIC
How it was run: as §1

E. faecium A6350 Line-R = details: Enterococcus faecium, A6350LINER, read-out: MIC
How it was run: as §1

E. faecium ATCC700221 = details: Enterococcus faecium, ATCC700221, E. faecium ATCC700221, read-out: MIC
How it was run: as §1

E. faecium UA210 = details: Enterococcus faecium, UA210, E. faecium UA210, read-out: MIC
How it was run: as §1

E. faecium UA392 = details: Enterococcus faecium, UA392, E. faecium UA392, read-out: MIC
How it was run: as §1

E. gallinarum UA604 = details: Enterococcus gallinarum, GALLINARUM, read-out: MIC
How it was run: as §1

S. aureus ATCC12600 MRSA = details: Staphylococcus aureus, read-out: MIC
How it was run: as §1

S. aureus ATCC27659 MSSA = details: Staphylococcus aureus, read-out: MIC
How it was run: as §1

S. aureus ATCC27660 MSSA = details: Staphylococcus aureus, read-out: MIC
How it was run: as §1

S. aureus ATCC35556 MRSA = details: Staphylococcus aureus, read-out: MIC
How it was run: as §1

S. aureus ATCC43300 MRSA = details: Staphylococcus aureus, ATCC 43300 / MRSA / VISA, S. aureus ATCC43300 MRSA/VISA, read-out: MIC
How it was run: as §1

S. epidermidis ATCC12228 = details: Staphylococcus epidermidis, ATCC12228, S. epidermidis ATCC12228, read-out: MIC
How it was run: as §1

S. epidermidis ATCC14990 = details: Staphylococcus epidermidis, ATCC14990, S. epidermidis ATCC14990, read-out: MIC
How it was run: as §1

S. epidermidis ATCC35983 = details: Staphylococcus epidermidis, ATCC35983, S. epidermidis ATCC35983, read-out: MIC
How it was run: as §1

For `COc1cccc(OC)c1C(=O)N[C@@H]1C(=O)N2[C@@H]1SC(C)(C)[C@@H]2C(=O)O` [Meth., methicillin], which MIC (E. faecalis A7789 Line-R; Table 6, 1st) is on record?
The MIC was over 16 µg/mL.

What about the MIC (E. faecalis A7789 Line-R; Table 6, 2nd) of the same compound?
The MIC was 32 µg/mL (≈ 84.1 µM).

What about the MIC (E. faecalis ATCC29212; E. faecalis ATCC29212, Table 6, 1st) of the same compound?
The MIC was 16 µg/mL (≈ 42.1 µM).

What about the MIC (E. faecalis ATCC29212; Enterococcus faecalis, ATCC29212, E. faecalis ATCC29212, Table 6, 1st, read-out: MIC) of the same compound?
The MIC was over 16 µg/mL.

And the MIC (E. faecalis ATCC29212; Enterococcus faecalis, ATCC29212, E. faecalis ATCC29212, Table 6, 2nd, read-out: MIC)?
The MIC was 32 µg/mL (≈ 84.1 µM).

What about the MIC (E. faecalis ATCC51299; Table 6, 1st) of the same compound?
The MIC was over 16 µg/mL.

What about the MIC (E. faecalis ATCC51299; Table 6, 2nd) of the same compound?
The MIC was 32 µg/mL (≈ 84.1 µM).

What about the MIC (E. faecium A-5960 Line-R; Table 6, 1st) of the same compound?
Its MIC is over 16 µg/mL.

And the MIC (E. faecium A-5960 Line-R; Table 6, 2nd)?
Its MIC is over 64 µg/mL.

What about the MIC (E. faecium A2735 Syn-R; Table 6, 1st) of the same compound?
The MIC was over 16 µg/mL.

What about the MIC (E. faecium A2735 Syn-R; Table 6, 2nd) of the same compound?
The MIC was over 64 µg/mL.

What about the MIC (E. faecium A4192 Syn-R; Table 6, 1st) of the same compound?
The MIC was over 16 µg/mL.

And the MIC (E. faecium A4192 Syn-R; Table 6, 2nd)?
Its MIC is over 64 µg/mL.

And the MIC (E. faecium A5959 Line-R; Table 6, 1st)?
Its MIC is over 16 µg/mL.

And the MIC (E. faecium A5959 Line-R; Table 6, 2nd)?
Its MIC is over 64 µg/mL.

And the MIC (E. faecium A6343 Line-R; Table 6, 1st)?
Its MIC is over 16 µg/mL.

And the MIC (E. faecium A6343 Line-R; Table 6, 2nd)?
The MIC was 64 µg/mL (≈ 168 µM).

What about the MIC (E. faecium A6345 Line-R; Table 6, 1st) of the same compound?
The MIC was over 16 µg/mL.

And the MIC (E. faecium A6345 Line-R; Table 6, 2nd)?
Its MIC is over 64 µg/mL.

And the MIC (E. faecium A6349 Line-R; Table 6, 1st)?
The MIC was over 16 µg/mL.

And the MIC (E. faecium A6349 Line-R; Table 6, 2nd)?
Its MIC is over 64 µg/mL.

What about the MIC (E. faecium A6350 Line-R; Table 6, 1st) of the same compound?
The MIC was over 16 µg/mL.

And the MIC (E. faecium A6350 Line-R; Table 6, 2nd)?
Its MIC is 64 µg/mL (≈ 168 µM).

What about the MIC (E. faecium ATCC700221; Table 6, 1st) of the same compound?
Its MIC is over 16 µg/mL.

And the MIC (E. faecium ATCC700221; Table 6, 2nd)?
Its MIC is over 64 µg/mL.

What about the MIC (E. faecium UA210; Table 6, 1st) of the same compound?
The MIC was over 16 µg/mL.

And the MIC (E. faecium UA210; Table 6, 2nd)?
The MIC was over 64 µg/mL.

What about the MIC (E. faecium UA392; Table 6, 1st) of the same compound?
The MIC was over 16 µg/mL.

And the MIC (E. faecium UA392; Table 6, 2nd)?
The MIC was over 64 µg/mL.

And the MIC (E. gallinarum UA604; Table 6, 1st)?
Its MIC is over 16 µg/mL.

What about the MIC (E. gallinarum UA604; Table 6, 2nd) of the same compound?
The MIC was over 64 µg/mL.

What about the MIC (S. aureus ATCC12600 MRSA; Table 6, 1st) of the same compound?
The MIC was 2 µg/mL (≈ 5.26 µM).

What about the MIC (S. aureus ATCC12600 MRSA; Table 6, 2nd) of the same compound?
The MIC was over 64 µg/mL.

What about the MIC (S. aureus ATCC27659 MSSA; Table 6, 1st) of the same compound?
The MIC was 2 µg/mL (≈ 5.26 µM).

And the MIC (S. aureus ATCC27659 MSSA; Table 6, 2nd)?
The MIC was 2 µg/mL (≈ 5.26 µM).

What about the MIC (S. aureus ATCC27660 MSSA; Table 6, 1st) of the same compound?
Its MIC is 2 µg/mL (≈ 5.26 µM).

What about the MIC (S. aureus ATCC27660 MSSA; Table 6, 2nd) of the same compound?
The MIC was 4 µg/mL (≈ 10.5 µM).

And the MIC (S. aureus ATCC35556 MRSA; Table 6, 1st)?
Its MIC is 1 µg/mL (≈ 2.63 µM).

And the MIC (S. aureus ATCC35556 MRSA; Table 6, 2nd)?
The MIC was 1 µg/mL (≈ 2.63 µM).

What about the MIC (S. aureus ATCC43300 MRSA; Table 6, 1st) of the same compound?
The MIC was 8 µg/mL (≈ 21 µM).

What about the MIC (S. aureus ATCC43300 MRSA; Table 6, 2nd) of the same compound?
Its MIC is 8 µg/mL (≈ 21 µM).

What about the MIC (S. epidermidis ATCC12228; Table 6, 1st) of the same compound?
Its MIC is 1 µg/mL (≈ 2.63 µM).

What about the MIC (S. epidermidis ATCC12228; Table 6, 2nd) of the same compound?
Its MIC is 2 µg/mL (≈ 5.26 µM).

What about the MIC (S. epidermidis ATCC14990; Table 6, 1st) of the same compound?
Its MIC is 1 µg/mL (≈ 2.63 µM).

What about the MIC (S. epidermidis ATCC14990; Table 6, 2nd) of the same compound?
The MIC was 1 µg/mL (≈ 2.63 µM).

And the MIC (S. epidermidis ATCC35983; Table 6, 1st)?
Its MIC is over 16 µg/mL.

What about the MIC (S. epidermidis ATCC35983; Table 6, 2nd) of the same compound?
The MIC was 64 µg/mL (≈ 168 µM).
